Experimental data as given in paper PMC11257039, “VCP activator reverses nuclear proteostasis defects and enhances TDP-43 aggregate clearance in multisystem proteinopathy models” (The Journal of Clinical Investigation, 2024).
Values joined by “and” are separate entries in the source; they are usually repeats but may differ in a detail not shown here. Equal values may be shown once.

Experiments:
R155H VCP = target: T1, R155H VCP (Mus musculus, UniProt Q01853, R155H); experiment: MESG-PNP ATPase assay, recombinant R155H VCP; format: biochemical
T1 construct: in the full-length recombinant VCP; His (N); made in house; host or cells: Escherichia coli BL21-CodonPlus (DE3)-RIL
T1 sequence (Q01853 whole entry R155H): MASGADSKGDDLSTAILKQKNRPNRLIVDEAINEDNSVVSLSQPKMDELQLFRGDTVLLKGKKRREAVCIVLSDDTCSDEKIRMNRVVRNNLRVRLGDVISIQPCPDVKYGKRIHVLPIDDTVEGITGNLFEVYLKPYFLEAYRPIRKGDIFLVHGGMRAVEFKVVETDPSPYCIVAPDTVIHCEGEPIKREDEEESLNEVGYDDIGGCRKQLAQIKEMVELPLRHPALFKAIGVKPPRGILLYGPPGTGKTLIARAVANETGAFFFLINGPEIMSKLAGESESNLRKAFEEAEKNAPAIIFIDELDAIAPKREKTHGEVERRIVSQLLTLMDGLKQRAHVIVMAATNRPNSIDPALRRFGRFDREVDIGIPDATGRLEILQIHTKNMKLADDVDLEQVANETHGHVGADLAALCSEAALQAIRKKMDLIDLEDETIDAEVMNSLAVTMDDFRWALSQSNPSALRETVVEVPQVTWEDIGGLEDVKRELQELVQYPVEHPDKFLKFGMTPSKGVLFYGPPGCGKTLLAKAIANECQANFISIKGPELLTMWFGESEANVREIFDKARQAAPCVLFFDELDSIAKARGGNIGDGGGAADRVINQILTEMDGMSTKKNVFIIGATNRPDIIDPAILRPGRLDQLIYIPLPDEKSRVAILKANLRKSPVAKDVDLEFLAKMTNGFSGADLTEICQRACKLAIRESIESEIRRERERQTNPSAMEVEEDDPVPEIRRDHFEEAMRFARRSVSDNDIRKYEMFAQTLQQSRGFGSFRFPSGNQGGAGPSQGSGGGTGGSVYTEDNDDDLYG
In short: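 Phosphate release (MESG-PNP, A360) from 50 nM recombinant mouse VCP mutant, with 25 μM compound versus 2% DMSO, at 1mM ATP. Read >15 min at 25°C, quantified against a phosphate standard curve; initial velocity from linear fit of the linear portion.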

[1] = test system: WT HeLa cells expressing GFP-TDP-4FL; experiment: Flow cytometry of GFP-TDP-4FL integrated fluorescence, WT HeLa; format: cell-based; settings: for Integrated Fluorescence WT (Normalized to CHX): replicate values
In short: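 Trypsinised cells resuspended in colorless DMEM with 2% FBS and analysed by flow cytometry. Integrated fluorescence taken as percent GFP-positive cells multiplied by GFP median fluorescence.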

SMILES: COCCNC(=O)NC(=O)COC(=O)c1cc([N+](=O)[O-])ccc1Sc1nc(C)cs1 [UP109]
- ATPase activity of R155H VCP (R155H VCP; 25 μM compound, 1 mM ATP, 50 nM VCP): increases ATPase activity
- ATPase activity, nmol Pi / nmol VCP / s (R155H VCP; VCP Mutation R155H, replicate values): 1.058 nmol Pi / nmol VCP / s and 1.110 nmol Pi / nmol VCP / s and 1.179 nmol Pi / nmol VCP / s
- Integrated Fluorescence WT (Normalized to CHX) ([1]; 5μM compound with CHX): 1.011 and 0.958 and 1.026 and 0.960 and 0.926 and 0.822 and 0.883 and 0.671
- Integrated Fluorescence WT (Normalized to CHX) ([1]; 20μM compound with CHX): 0.950 and 0.938 and 0.974 and 0.870 and 0.844 and 0.840 and 0.850 and 0.749
- clearance of GFP-TDP-4FL aggregates (integrated fluorescence) ([1]; MG132, then CHX with 5 or 20 μM activator): enhances clearance of TDP-4FL inclusions
